Test results as given in patent US12371454B2, “Cyclic peptide compound having Kras inhibitory action” (priority 2019, dated 2025).
Starred links: 1 amine or outer side, 2 acyl side, 3 side chain; linkers in the order of their positions; H or OH if unused. Positions of bridges follow the written chain, without caps; N, C: chain ends. Non-standard residues stand in square brackets, D forms with d. Residues, ends and D or L forms follow the SMILES beside them. *: point of attachment. hPhe(3-Cl-4-CF3) = N[C@@H](CCc1ccc(C(F)(F)F)c(Cl)c1)C(=O)O; hPhe(3-F,4-CF3) = N[C@@H](CCc1ccc(C(F)(F)F)c(F)c1)C(=O)O; NMePhe(4-CF3) = CN[C@@H](Cc1ccc(C(F)(F)F)cc1)C(=O)O; NEtAsp = CCN([C@@H](CC(=O)[*:3])C(=O)[*:2])[*:1]; 3Oxa8azabicyclo(3.2.1)octane = C1CC2COCC1N2*; NMePhe(4-Cl) = CN[C@@H](Cc1ccc(Cl)cc1)C(=O)O; NMePhe(4-F) = CN[C@@H](Cc1ccc(F)cc1)C(=O)O; NMedβ3hAla = C[C@H](CC(=O)[*:2])N(C)[*:1]; NMeGly(cPent) = CN[C@H](C(=O)O)C1CCCC1; Pro(4,4-F2) = O=C(O)[C@@H]1CC(F)(F)CN1; NMeGly(cBu) = CN[C@H](C(=O)O)C1CCC1; NMeCha = CN[C@@H](CC1CCCCC1)C(=O)O; NMeI = CC[C@H](C)[C@H](NC)C(=O)O; NMeD = CN[C@@H](CC(=O)O)C(=O)O; NMeL = CN[C@@H](CC(C)C)C(=O)O; NMeV = CN[C@H](C(=O)O)C(C)C; d(β3hA) = C[C@@H](N)CC(=O)O; NMeS = CN[C@@H](CO)C(=O)O; NMeA = CN[C@@H](C)C(=O)O; Piperidide = C1CCN(*)CC1; dNMeA = CN[C@H](C)C(=O)O; Ac5c = NC1(C(=O)O)CCCC1; Aze = O=C(O)[C@@H]1CCN1; Sar = CNCC(=O)O; Propyl = CCC*

Tested on: Human pancreatic cancer cell line AsPC-1
Experiment: Measurement of AsPC-1 cell growth inhibition (AsPC-1 CGI)
Type: cell-based
Conditions: 96 h
Summary of the method: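 AsPC-1 cells in 15% FBS RPMI-1640 were exposed to test compound for 96 hours at 37° C, with CellTiter-Glo as endpoint.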

Row | Compound | IC50
1 | CCCOC[C@H]1C(=O)N(C)CC(=O)N[C@@H](CCc2ccc(C(F)(F)F)c(F)c2)C(=O)N2CCC[C@H]2C(=O)NC2(CCCC2)C(=O)N(C)[C@@H](C2CCCC2)C(=O)N(C)[C@H](C(=O)N2C3CCC2COC3)CC(=O)N(C)[C@@H](CC(C)C)C(=O)N[C@@H]([C@@H](C)CC)C(=O)N(C)[C@@H](C)C(=O)N2CC[C@H]2C(=O)N1C [Compound 1030] ([NMeL]I[NMeA][Aze][NMeS](Propyl)[Sar][hPhe(3-F,4-CF3)]P[Ac5c][NMeGly(cPent)][NMeD]-{3Oxa8azabicyclo(3.2.1)octane}; lactam N-11) | 20 to 50 nM
2 | CC[C@H](C)[C@@H]1NC(=O)[C@H](C2CCC2)N(C)C(=O)C[C@@H](C(=O)N2CCCCC2)N(C)C(=O)[C@H](C(C)C)N(C)C(=O)C2(CCCC2)NC(=O)[C@@H]2CCCN2C(=O)[C@H](CCc2ccc(C(F)(F)F)c(Cl)c2)NC(=O)CN(C)C(=O)[C@H](CC2CCCCC2)N(C)C(=O)[C@@H]2CCN2C(=O)[C@H](C)N(C)C1=O [Compound 1036] ([NMeGly(cBu)]I[NMeA][Aze][NMeCha][Sar][hPhe(3-Cl-4-CF3)]P[Ac5c][NMeV][NMeD]-Piperidide; lactam N-11) | 100 to 500 nM
3 | CC[C@H](C)[C@@H]1NC(=O)[C@H](CC(C)C)N(C)C(=O)C[C@@H](C(=O)N2CCCCC2)N(C)C(=O)[C@H](C(C)C)N(C)C(=O)C2(CCCC2)NC(=O)[C@@H]2CCCN2C(=O)[C@H](CCc2ccc(C(F)(F)F)c(F)c2)NC(=O)CN(C)C(=O)[C@H](CC2CCCCC2)N(C)C(=O)[C@@H]2CCN2C(=O)[C@H](C)N(C)C1=O [Compound 1040] ([NMeL]I[NMeA][Aze][NMeCha][Sar][hPhe(3-F,4-CF3)]P[Ac5c][NMeV][NMeD]-Piperidide; lactam N-11) | 100 to 500 nM
4 | CC[C@H](C)[C@@H]1NC(=O)[C@H](CC(C)C)N(C)C(=O)C[C@@H](C)N(C)C(=O)[C@H](C2CCCC2)N(C)C(=O)C2(CCCC2)NC(=O)[C@@H]2CCCN2C(=O)[C@H](CCc2ccc(C(F)(F)F)c(Cl)c2)NC(=O)CN(C)C(=O)[C@H](C2CCCC2)N(C)C(=O)[C@@H]2CCN2C(=O)[C@H](C)N(C)C1=O [Compound 1046] (cyclo([Ac5c][NMeGly(cPent)][NMedβ3hAla][NMeL]I[NMeA][Aze][NMeGly(cPent)][Sar][hPhe(3-Cl-4-CF3)]P)) | 20 to 50 nM
5 | CC[C@H](C)[C@@H]1NC(=O)[C@H](CC(C)C)N(C)C(=O)C[C@@H](C(=O)N2CCCCC2)N(CC)C(=O)[C@H](C2CCCC2)N(C)C(=O)C2(CCCC2)NC(=O)[C@@H]2CCCN2C(=O)[C@H](CCc2ccc(C(F)(F)F)c(Cl)c2)NC(=O)CN(C)C(=O)[C@H](C2CCC2)N(C)C(=O)[C@@H]2CCN2C(=O)[C@H](C)N(C)C1=O [Compound 1047] ([NMeL]I[NMeA][Aze][NMeGly(cBu)][Sar][hPhe(3-Cl-4-CF3)]P[Ac5c][NMeGly(cPent)][NEtAsp]-Piperidide; lactam N-11) | 50 to 100 nM
6 | CC[C@H](C)[C@@H]1NC(=O)[C@H](CC(C)C)N(C)C(=O)C[C@@H](C(=O)N2CCCCC2)N(C)C(=O)[C@H]([C@@H](C)CC)N(C)C(=O)C2(CCCC2)NC(=O)[C@@H]2CCCN2C(=O)[C@H](CCc2ccc(C(F)(F)F)c(Cl)c2)NC(=O)CN(C)C(=O)[C@H](Cc2ccc(F)cc2)N(C)C(=O)[C@@H]2CCN2C(=O)[C@H](C)N(C)C1=O [Compound 1060] ([NMeL]I[NMeA][Aze][NMePhe(4-F)][Sar][hPhe(3-Cl-4-CF3)]P[Ac5c][NMeI][NMeD]-Piperidide; lactam N-11) | 20 to 50 nM
7 | CC[C@H](C)[C@@H]1NC(=O)[C@H](CC(C)C)N(C)C(=O)C[C@@H](C)N(C)C(=O)[C@H](C2CCCC2)N(C)C(=O)C2(CCCC2)NC(=O)[C@@H]2CC(F)(F)CN2C(=O)[C@H](CCc2ccc(C(F)(F)F)c(Cl)c2)NC(=O)CN(C)C(=O)[C@H](Cc2ccc(C(F)(F)F)cc2)N(C)C(=O)[C@@H]2CCN2C(=O)[C@H](C)N(C)C1=O [Compound 1062] (cyclo([Ac5c][NMeGly(cPent)][NMedβ3hAla][NMeL]I[NMeA][Aze][NMePhe(4-CF3)][Sar][hPhe(3-Cl-4-CF3)][Pro(4,4-F2)])) | 20 to 50 nM
8 | CC[C@H](C)[C@@H]1NC(=O)[C@H](C)N(C)C(=O)C[C@@H](C)NC(=O)[C@H](C2CCCC2)N(C)C(=O)C2(CCCC2)NC(=O)[C@@H]2CCCN2C(=O)[C@H](CCc2ccc(C(F)(F)F)c(Cl)c2)NC(=O)[C@@H](C)N(C)C(=O)[C@H](C(C)C)N(C)C(=O)[C@@H]2CCN2C(=O)[C@H](C)N(C)C1=O [Compound 1066] (cyclo([Ac5c][NMeGly(cPent)][d(β3hA)][NMeA]I[NMeA][Aze][NMeV][dNMeA][hPhe(3-Cl-4-CF3)]P)) | 100 to 500 nM
9 | CC[C@H](C)[C@@H]1NC(=O)[C@H](C(C)C)N(C)C(=O)C[C@@H](C)NC(=O)[C@H](C(C)C)N(C)C(=O)C2(CCCC2)NC(=O)[C@H](CC(C)C)N(C)C(=O)[C@H](CCc2ccc(C(F)(F)F)c(Cl)c2)NC(=O)CN(C)C(=O)[C@H](Cc2ccc(Cl)cc2)N(C)C(=O)CN(C)C(=O)CN(C)C1=O [Compound 1069] (cyclo([Ac5c][NMeV][d(β3hA)][NMeV]I[Sar][Sar][NMePhe(4-Cl)][Sar][hPhe(3-Cl-4-CF3)][NMeL])) | 100 to 500 nM
